Data published in patent US20230263825A1, “ANTI-CANCER ACTIVITY OF PERBORATE SALTS” (priority 2020, published 2023).
Entries after “also recorded” stand apart in the source; their conditions may differ.

Key:
[1] = test system: MRC5 cells; test: Video analysis of cell movement and division; format: cell-based
Protocol: (§1) The DMS114 and MRC5 cells from Example 2 were analyzed during the 3 day treatment period with sodium perborate tetrahydrate. Roughly 20 photos/hour were taken of the cells over the 72 hour (3 day) period. The resulting 1500 were merged to create a video which was used to observe the effect of sodium perborate on movement and division of DMS114 and MRC5 cells. […] FIGS. 21A and 21B show DMS114 cells at the start and end of the 72 hour treatment period. FIGS. 22A and 22B show MRC5 cells at the start and end of the 72 hour treatment period.

[2] = test system: DMS114 cells; test: Video analysis of cell movement and division; format: cell-based; settings: 72 hour treatment
Protocol: as §1

O.O.O.O.[Na+].[O-]B1OO1 [sodium perborate tetrahydrate]
division and movement of healthy cells [1]: slowing cell division and movement of healthy cells to some extent; also recorded: only slowed the division and movement | DMS114 cells whose movement was stopped [2]: ~100%
